Experimental data as given in ChEMBL document CHEMBL5715260, “Selectivity Literature for EUbOPEN Chemogenomic Library” (2024).
Blank lines part the entries; values can stand above or below the molecule they belong to.

What was measured:
[1] = target: T1, Alpha trans-inducing protein (Human alphaherpesvirus 1) (UniProt A0A5J6DW59); test: Selectivity interaction (Reporter gene assay) EUB0001172a UL48; parameters: recommended concentration 1 uM
[2] = target: T2, Oxysterols receptor LXR-beta (Homo sapiens) (UniProt P55055); test: Selectivity interaction (Reporter gene assay) EUB0001173a NR1H2; parameters: recommended concentration 1 uM; conditions: screened at recom. conc., Selectivity number of off-targets 1.0, Selectivity number of targets 19.0, Source Knowledge inhouse
T2 sequence (whole entry): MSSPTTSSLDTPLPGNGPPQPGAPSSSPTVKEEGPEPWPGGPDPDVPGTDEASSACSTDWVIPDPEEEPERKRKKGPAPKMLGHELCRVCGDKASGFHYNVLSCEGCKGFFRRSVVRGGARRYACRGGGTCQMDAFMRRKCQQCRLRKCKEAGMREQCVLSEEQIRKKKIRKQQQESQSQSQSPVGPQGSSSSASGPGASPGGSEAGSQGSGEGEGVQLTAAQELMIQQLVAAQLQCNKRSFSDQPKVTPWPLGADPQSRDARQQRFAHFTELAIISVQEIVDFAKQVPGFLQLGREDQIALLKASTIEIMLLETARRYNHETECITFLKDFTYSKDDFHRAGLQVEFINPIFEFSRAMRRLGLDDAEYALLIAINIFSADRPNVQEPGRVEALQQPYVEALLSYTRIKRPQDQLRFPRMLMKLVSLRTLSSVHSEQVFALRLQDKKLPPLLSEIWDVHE

[3] = target: T3, Hepatocyte nuclear factor 4-alpha (Homo sapiens) (UniProt P41235); test: Selectivity interaction (Reporter gene assay) EUB0001173a HNF4A; parameters: recommended concentration 1 uM
T3 sequence (whole entry): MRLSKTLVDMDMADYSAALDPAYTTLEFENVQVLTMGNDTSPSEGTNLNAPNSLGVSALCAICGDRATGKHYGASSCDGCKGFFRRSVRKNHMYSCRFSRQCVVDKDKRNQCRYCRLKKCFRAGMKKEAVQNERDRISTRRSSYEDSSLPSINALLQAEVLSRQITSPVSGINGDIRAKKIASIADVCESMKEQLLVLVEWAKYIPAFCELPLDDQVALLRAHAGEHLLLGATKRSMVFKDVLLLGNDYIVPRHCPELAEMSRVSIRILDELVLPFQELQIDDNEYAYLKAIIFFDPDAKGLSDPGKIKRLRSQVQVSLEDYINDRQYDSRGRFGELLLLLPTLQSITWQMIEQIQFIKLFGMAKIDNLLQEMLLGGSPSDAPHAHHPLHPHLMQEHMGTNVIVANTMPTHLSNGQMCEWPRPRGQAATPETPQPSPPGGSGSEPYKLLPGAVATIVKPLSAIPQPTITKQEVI

[4] = target: T4, Nuclear receptor subfamily 2 group C member 1 (Homo sapiens) (UniProt P13056); test: Selectivity interaction (Reporter gene assay) EUB0001173a NR2C1; parameters: recommended concentration 1 uM
T4 sequence (whole entry): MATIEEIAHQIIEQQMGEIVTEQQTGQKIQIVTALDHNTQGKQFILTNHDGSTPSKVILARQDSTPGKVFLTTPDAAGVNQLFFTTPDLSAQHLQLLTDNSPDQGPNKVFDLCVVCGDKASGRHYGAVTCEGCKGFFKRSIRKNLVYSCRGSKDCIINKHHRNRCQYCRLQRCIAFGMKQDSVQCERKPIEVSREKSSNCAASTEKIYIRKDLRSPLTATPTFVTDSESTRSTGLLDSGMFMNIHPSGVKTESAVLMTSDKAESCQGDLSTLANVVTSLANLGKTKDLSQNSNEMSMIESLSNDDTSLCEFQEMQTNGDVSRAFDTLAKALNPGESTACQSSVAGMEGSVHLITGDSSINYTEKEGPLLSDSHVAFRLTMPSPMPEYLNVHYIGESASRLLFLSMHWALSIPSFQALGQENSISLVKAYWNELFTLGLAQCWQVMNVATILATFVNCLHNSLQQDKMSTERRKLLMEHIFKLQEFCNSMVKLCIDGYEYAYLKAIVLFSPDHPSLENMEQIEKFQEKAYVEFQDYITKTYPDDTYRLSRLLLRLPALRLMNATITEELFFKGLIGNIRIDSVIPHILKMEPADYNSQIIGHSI

[5] = target: Nuclear receptor subfamily 2 group E member 1 (Homo sapiens) (UniProt Q9Y466); test: Selectivity interaction (Reporter gene assay) EUB0001173a NR2E1; parameters: recommended concentration 1 uM
Sequence of Nuclear receptor subfamily 2 group E member 1 (Homo sapiens) (Q9Y466 whole entry): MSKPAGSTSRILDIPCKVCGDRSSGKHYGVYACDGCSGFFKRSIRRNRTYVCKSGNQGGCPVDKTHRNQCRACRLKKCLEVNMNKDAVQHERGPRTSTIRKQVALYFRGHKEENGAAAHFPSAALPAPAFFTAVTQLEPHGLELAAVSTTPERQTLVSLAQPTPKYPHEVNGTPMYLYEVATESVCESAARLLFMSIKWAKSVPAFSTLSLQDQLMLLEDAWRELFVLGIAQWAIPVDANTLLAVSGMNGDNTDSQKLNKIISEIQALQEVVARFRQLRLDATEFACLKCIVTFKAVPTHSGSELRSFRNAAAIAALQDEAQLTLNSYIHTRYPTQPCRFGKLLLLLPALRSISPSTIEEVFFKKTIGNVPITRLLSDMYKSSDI

[6] = target: Nuclear receptor subfamily 4immunitygroup A member 1 (Homo sapiens) (UniProt P22736); test: Selectivity interaction (Reporter gene assay) EUB0001173a NR4A1; parameters: recommended concentration 1 uM
Sequence of Nuclear receptor subfamily 4immunitygroup A member 1 (Homo sapiens) (P22736 whole entry): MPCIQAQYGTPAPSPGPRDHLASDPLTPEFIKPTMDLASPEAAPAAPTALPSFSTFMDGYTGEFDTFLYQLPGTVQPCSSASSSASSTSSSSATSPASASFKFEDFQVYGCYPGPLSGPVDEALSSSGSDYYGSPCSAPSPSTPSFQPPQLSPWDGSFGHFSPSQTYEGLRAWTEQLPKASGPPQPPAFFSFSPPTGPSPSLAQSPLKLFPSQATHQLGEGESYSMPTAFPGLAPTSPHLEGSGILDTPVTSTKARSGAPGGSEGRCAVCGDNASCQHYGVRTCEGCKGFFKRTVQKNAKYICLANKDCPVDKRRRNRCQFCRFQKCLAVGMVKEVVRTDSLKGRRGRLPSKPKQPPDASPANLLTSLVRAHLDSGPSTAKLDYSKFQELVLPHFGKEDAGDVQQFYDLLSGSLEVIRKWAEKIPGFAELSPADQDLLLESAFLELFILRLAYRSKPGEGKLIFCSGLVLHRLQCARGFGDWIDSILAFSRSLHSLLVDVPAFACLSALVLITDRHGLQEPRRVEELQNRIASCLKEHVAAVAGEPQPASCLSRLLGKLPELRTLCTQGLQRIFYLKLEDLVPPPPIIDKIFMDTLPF

[7] = target: Steroidogenic factor 1 (Homo sapiens) (UniProt Q13285); test: Selectivity interaction (Reporter gene assay) EUB0001173a NR5A1; parameters: recommended concentration 1 uM
Sequence of Steroidogenic factor 1 (Homo sapiens) (Q13285 whole entry): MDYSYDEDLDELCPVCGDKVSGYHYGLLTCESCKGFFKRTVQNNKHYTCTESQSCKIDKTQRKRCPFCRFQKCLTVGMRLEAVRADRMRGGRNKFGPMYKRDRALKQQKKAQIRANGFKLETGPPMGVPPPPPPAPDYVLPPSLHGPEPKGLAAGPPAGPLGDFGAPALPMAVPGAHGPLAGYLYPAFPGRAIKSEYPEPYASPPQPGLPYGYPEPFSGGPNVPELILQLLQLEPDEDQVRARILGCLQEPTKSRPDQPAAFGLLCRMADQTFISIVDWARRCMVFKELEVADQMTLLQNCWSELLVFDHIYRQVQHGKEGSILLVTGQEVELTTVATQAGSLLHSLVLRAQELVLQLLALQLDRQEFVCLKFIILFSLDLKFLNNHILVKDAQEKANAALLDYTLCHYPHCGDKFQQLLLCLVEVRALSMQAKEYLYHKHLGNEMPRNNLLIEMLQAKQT

[8] = target: T1, Alpha trans-inducing protein (Human alphaherpesvirus 1); test: Selectivity interaction (Reporter gene assay) EUB0001173a UL48; parameters: recommended concentration 1 uM
[9] = target: T5, Retinoic acid receptor RXR-alpha (Homo sapiens) (UniProt P19793); test: Selectivity interaction (Reporter gene assay) EUB0001173a RXRA; parameters: recommended concentration 1 uM
T5 sequence (whole entry): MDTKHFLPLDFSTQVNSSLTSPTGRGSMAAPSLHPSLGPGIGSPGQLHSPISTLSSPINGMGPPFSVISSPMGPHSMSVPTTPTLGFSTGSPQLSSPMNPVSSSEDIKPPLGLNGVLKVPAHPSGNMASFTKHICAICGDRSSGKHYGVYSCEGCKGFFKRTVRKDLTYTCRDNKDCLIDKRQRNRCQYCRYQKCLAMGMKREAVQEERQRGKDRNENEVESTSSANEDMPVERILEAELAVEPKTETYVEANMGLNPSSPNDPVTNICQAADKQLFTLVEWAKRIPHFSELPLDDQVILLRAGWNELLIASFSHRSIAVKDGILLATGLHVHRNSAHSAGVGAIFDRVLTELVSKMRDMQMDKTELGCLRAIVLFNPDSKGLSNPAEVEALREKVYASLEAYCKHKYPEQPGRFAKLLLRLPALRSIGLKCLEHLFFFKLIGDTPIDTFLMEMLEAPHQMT

[10] = target: T3, Hepatocyte nuclear factor 4-alpha (Homo sapiens); test: Selectivity interaction (Reporter gene assay) EUB0001482aCl HNF4A; parameters: recommended concentration 10 uM
[11] = target: T4, Nuclear receptor subfamily 2 group C member 1 (Homo sapiens); test: Selectivity interaction (Reporter gene assay) EUB0001482aCl NR2C1; parameters: recommended concentration 10 uM
[12] = target: Nuclear receptor subfamily 2 group E member 1 (Homo sapiens) (UniProt Q9Y466); test: Selectivity interaction (Reporter gene assay) EUB0001482aCl NR2E1; parameters: recommended concentration 10 uM
[13] = target: Nuclear receptor subfamily 4immunitygroup A member 1 (Homo sapiens) (UniProt P22736); test: Selectivity interaction (Reporter gene assay) EUB0001482aCl NR4A1; parameters: recommended concentration 10 uM
[14] = target: Steroidogenic factor 1 (Homo sapiens) (UniProt Q13285); test: Selectivity interaction (Reporter gene assay) EUB0001482aCl NR5A1; parameters: recommended concentration 10 uM
[15] = target: T1, Alpha trans-inducing protein (Human alphaherpesvirus 1); test: Selectivity interaction (Reporter gene assay) EUB0001482aCl UL48; parameters: recommended concentration 10 uM
[16] = target: T5, Retinoic acid receptor RXR-alpha (Homo sapiens); test: Selectivity interaction (Reporter gene assay) EUB0001482aCl RXRA; parameters: recommended concentration 10 uM; conditions: reference bexarotene 1 uM, Selectivity number of off-targets 0.0, Selectivity number of targets 1.0, Source Knowledge inhouse
[17] = target: T3, Hepatocyte nuclear factor 4-alpha (Homo sapiens); test: Selectivity interaction (Reporter gene assay) EUB0001478a HNF4A; parameters: recommended concentration 1 uM
[18] = target: T4, Nuclear receptor subfamily 2 group C member 1 (Homo sapiens); test: Selectivity interaction (Reporter gene assay) EUB0001478a NR2C1; parameters: recommended concentration 1 uM
[19] = target: Nuclear receptor subfamily 2 group E member 1 (Homo sapiens) (UniProt Q9Y466); test: Selectivity interaction (Reporter gene assay) EUB0001478a NR2E1; parameters: recommended concentration 1 uM
[20] = target: Nuclear receptor subfamily 4immunitygroup A member 1 (Homo sapiens) (UniProt P22736); test: Selectivity interaction (Reporter gene assay) EUB0001478a NR4A1; parameters: recommended concentration 1 uM
[21] = target: Steroidogenic factor 1 (Homo sapiens) (UniProt Q13285); test: Selectivity interaction (Reporter gene assay) EUB0001478a NR5A1; parameters: recommended concentration 1 uM
[22] = target: T1, Alpha trans-inducing protein (Human alphaherpesvirus 1); test: Selectivity interaction (Reporter gene assay) EUB0001478a UL48; parameters: recommended concentration 1 uM
[23] = target: T5, Retinoic acid receptor RXR-alpha (Homo sapiens); test: Selectivity interaction (Reporter gene assay) EUB0001478a RXRA; parameters: recommended concentration 1 uM
[24] = target: T3, Hepatocyte nuclear factor 4-alpha (Homo sapiens); test: Selectivity interaction (Reporter gene assay) EUB0001169a HNF4A; parameters: recommended concentration 1 uM
[25] = target: T4, Nuclear receptor subfamily 2 group C member 1 (Homo sapiens); test: Selectivity interaction (Reporter gene assay) EUB0001169a NR2C1; parameters: recommended concentration 1 uM
[26] = target: Nuclear receptor subfamily 2 group E member 1 (Homo sapiens) (UniProt Q9Y466); test: Selectivity interaction (Reporter gene assay) EUB0001169a NR2E1; parameters: recommended concentration 1 uM
[27] = target: Nuclear receptor subfamily 4immunitygroup A member 1 (Homo sapiens) (UniProt P22736); test: Selectivity interaction (Reporter gene assay) EUB0001169a NR4A1; parameters: recommended concentration 1 uM
[28] = target: Steroidogenic factor 1 (Homo sapiens) (UniProt Q13285); test: Selectivity interaction (Reporter gene assay) EUB0001169a NR5A1; parameters: recommended concentration 1 uM; conditions: screened at recom. conc., Selectivity number of off-targets 1.0, Selectivity number of targets 5.0, Source Knowledge inhouse
[29] = target: T1, Alpha trans-inducing protein (Human alphaherpesvirus 1); test: Selectivity interaction (Reporter gene assay) EUB0001169a UL48; parameters: recommended concentration 1 uM
[30] = target: T5, Retinoic acid receptor RXR-alpha (Homo sapiens); test: Selectivity interaction (Reporter gene assay) EUB0001169a RXRA; parameters: recommended concentration 1 uM

T1 sequence (A0A5J6DW59 as listed by the source): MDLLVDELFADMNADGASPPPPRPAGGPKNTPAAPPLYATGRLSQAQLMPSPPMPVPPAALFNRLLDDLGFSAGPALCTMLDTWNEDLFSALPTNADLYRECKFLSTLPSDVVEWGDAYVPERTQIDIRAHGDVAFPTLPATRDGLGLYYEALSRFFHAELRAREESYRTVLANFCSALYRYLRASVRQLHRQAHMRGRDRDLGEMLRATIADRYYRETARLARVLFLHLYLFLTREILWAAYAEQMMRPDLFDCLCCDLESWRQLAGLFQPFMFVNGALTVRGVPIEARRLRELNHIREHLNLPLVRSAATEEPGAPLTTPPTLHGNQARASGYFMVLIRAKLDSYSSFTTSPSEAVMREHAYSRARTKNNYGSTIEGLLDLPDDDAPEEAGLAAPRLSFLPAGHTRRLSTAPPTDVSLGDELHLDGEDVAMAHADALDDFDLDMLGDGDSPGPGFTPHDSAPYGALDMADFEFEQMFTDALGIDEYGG

SMILES: CC(C)(C[C@H]1CN(S(=O)(=O)c2cccc(C(F)(F)F)c2)c2cc(-c3cc(F)cc(OC(F)F)c3)ccc2O1)C(=O)O
P-value [1]: 4.9e-12

SMILES: C[C@H](CCOc1cccc(CC(=O)O)c1)N(Cc1cccc(C(F)(F)F)c1Cl)CC(c1ccccc1)c1ccccc1
Fold activation [10]: 1.02
Fold activation [11]: 1.42
Fold activation [12]: 1.41
Fold activation [13]: 1.25
Fold activation [14]: 1.11
P-value [15]: 0.0185
Relative activation [16]: 0.905%

SMILES: C=C1/C(=C\C=C2/CCC[C@]3(C)[C@@H]([C@H](C)CCCC(C)(C)O)CC[C@@H]23)C[C@@H](O)C[C@@H]1O
Remaining activity [17]: 0.883
Fold activation [18]: 1.06
Fold activation [19]: 1.03
Fold activation [20]: 1.22
Remaining activity [21]: 0.937
P-value [22]: 6.76e-09
Relative activation [23]: 0.656%

Continued, values first:

Fold activation [2]: 5.89
Fold activation [3]: 1.11
Fold activation [4]: 1.23
Fold activation [5]: 1.08
Fold activation [6]: 1.01
Fold activation [7]: 0.997
P-value [8]: 1.58e-05
Relative activation [9]: 0.539%
SMILES: Cn1cc(C(=O)O)c2ccc(N3CCC(OCc4c(-c5c(Cl)cccc5Cl)noc4C4CC4)CC3)cc21

Remaining activity [24]: 0.655
Fold activation [25]: 1.28
Remaining activity [26]: 0.961
Remaining activity [27]: 0.696
Remaining activity [28]: 0.47
P-value [29]: 0.00151
Relative activation [30]: 0.815%
SMILES: O=C(O)c1cc(F)c2nc(N3[C@@H]4CC[C@H]3C[C@@H](OCc3c(-c5ccccc5OC(F)(F)F)noc3C3CC3)C4)sc2c1
